Source: patent publication US11117900B2 (Vertex Pharmaceuticals Incorporated, priority 2012, dated 2021)

test system: HCT116 colorectal cancer cells; assay: Cisplatin sensitization assay (96 h MTS cell viability); format: cell-based; settings: Cisplatin sensitization value;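 further: compound concentration needed to lower the IC50 of Cisplatin alone by a set fold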
In short: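 The MTS viability read, after 1 h with reagent, followed 96 h of co-treatment at 37° C. in 5% CO2. Both compound and cisplatin were titrated 2-fold from a 10 μM top final concentration in a complete concentration matrix on HCT116 cells. Scores +++/++/+ reflect cisplatin sensitization value ranges.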

| Compound | Cisplatin Sensitization Assay |
| --- | --- |
| Cn1cncc1-c1c(F)cncc1NC(=O)c1c(N)nn2cc(F)cnc12 [I-C-79, 2-amino-6-fluoro-N-(5-fluoro-4-(1-methyl-1H-imidazol-5-yl)pyridin-3-yl)pyrazolo[1,5-a]pyrimidine-3-carboxamide] | +++ (Compounds with a Cisplatin sensitization value of <0.02 μM are marked with “+++.”) |
| CCn1cncc1-c1ccncc1NC(=O)c1c(N)nn2cc(F)cnc12 [I-C-80, 2-amino-N-(4-(1-ethyl-1H-imidazol-5-yl)pyridin-3-yl)-6-fluoropyrazolo[1,5-a]pyrimidine-3-carboxamide] | +++ (Compounds with a Cisplatin sensitization value of <0.02 μM are marked with “+++.”) |
| COc1cncc(NC(=O)c2c(N)nn3cc(F)cnc23)c1-c1cncn1C [I-C-81, 2-amino-6-fluoro-N-(5-methoxy-4-(1-methyl-1H-imidazol-5-yl)pyridin-3-yl)pyrazolo[1,5-a]pyrimidine-3-carboxamide] | +++ (Compounds with a Cisplatin sensitization value of <0.02 μM are marked with “+++.”) |
| COc1cncc(NC(=O)c2c(N)nn3cc(F)cnc23)c1-c1cccnc1 [I-C-82, 2-amino-6-fluoro-N-(5′-methoxy-[3,4′-bipyridin]-3′-yl)pyrazolo[1,5-a]pyrimidine-3-carboxamide] | +++ (Compounds with a Cisplatin sensitization value of <0.02 μM are marked with “+++.”) |
| COCCn1cncc1-c1ccncc1NC(=O)c1c(N)nn2cc(F)cnc12 [I-C-83, 2-amino-6-fluoro-N-(4-(1-(2-methoxyethyl)-1H-imidazol-5-yl)pyridin-3-yl)pyrazolo[1,5-a]pyrimidine-3-carboxamide] | ++ (Compounds with a Cisplatin sensitization value >0.02 μM but <0.2 μM are marked with “++.”) |
| COc1cncc(NC(=O)c2c(N)nn3cc(F)cnc23)c1C1CC1 [I-C-84, 2-amino-N-(4-cyclopropyl-5-methoxypyridin-3-yl)-6-fluoropyrazolo[1,5-a]pyrimidine-3-carboxamide] | ++ (Compounds with a Cisplatin sensitization value >0.02 μM but <0.2 μM are marked with “++.”) |
| CN1CCN(C(=O)C2CCN(c3ccncc3NC(=O)c3c(N)nn4cc(F)cnc34)CC2)CC1 [I-G-1, 2-amino-6-fluoro-N-(4-(4-(4-methylpiperazine-1-carbonyl)piperidin-1-yl)pyridin-3-yl)pyrazolo[1,5-a]pyrimidine-3-carboxamide] | +++ (Compounds with a Cisplatin sensitization value of <0.02 μM are marked with “+++.”) |
| CN(C)C(=O)C1CCN(c2ccncc2NC(=O)c2c(N)nn3cc(F)cnc23)CC1 [I-G-2, 2-amino-N-(4-(4-(dimethylcarbamoyl)piperidin-1-yl)pyridin-3-yl)-6-fluoropyrazolo[1,5-a]pyrimidine-3-carboxamide] | +++ (Compounds with a Cisplatin sensitization value of <0.02 μM are marked with “+++.”) |
| CN1CCN(C(=O)C2CCN(c3c(Cl)cncc3NC(=O)c3c(N)nn4cc(F)cnc34)CC2)CC1 [I-G-3, 2-amino-N-(5-chloro-4-(4-(4-methylpiperazine-1-carbonyl)piperidin-1-yl)pyridin-3-yl)-6-fluoropyrazolo[1,5-a]pyrimidine-3-carboxamide] | +++ (Compounds with a Cisplatin sensitization value of <0.02 μM are marked with “+++.”) |
| CN1CCN(C(=O)C2CCN(c3c(F)cncc3NC(=O)c3c(N)nn4cc(F)cnc34)CC2)CC1 [I-G-4, 2-amino-6-fluoro-N-(5-fluoro-4-(4-(4-methylpiperazine-1-carbonyl)piperidin-1-yl)pyridin-3-yl)pyrazolo[1,5-a]pyrimidine-3-carboxamide] | +++ (Compounds with a Cisplatin sensitization value of <0.02 μM are marked with “+++.”) |
| CN1CCN(C(=O)C2CCN(c3c(F)cncc3NC(=O)c3c(N)nn4cc(Cl)cnc34)CC2)CC1 [I-G-5, 2-amino-6-chloro-N-(5-fluoro-4-(4-(4-methylpiperazine-1-carbonyl)piperidin-1-yl)pyridin-3-yl)pyrazolo[1,5-a]pyrimidine-3-carboxamide] | +++ (Compounds with a Cisplatin sensitization value of <0.02 μM are marked with “+++.”) |
| CN1CCCN(C(=O)C2CCN(c3c(F)cncc3NC(=O)c3c(N)nn4cc(F)cnc34)CC2)CC1 [I-G-6, 2-amino-6-fluoro-N-(5-fluoro-4-(4-(4-methyl-1,4-diazepane-1-carbonyl)piperidin-1-yl)pyridin-3-yl)pyrazolo[1,5-a]pyrimidine-3-carboxamide] | +++ (Compounds with a Cisplatin sensitization value of <0.02 μM are marked with “+++.”) |
| Nc1nn2cc(F)cnc2c1C(=O)Nc1cncc(F)c1N1CCC(C(=O)N2CCN3CCC2CC3)CC1 [I-G-7, N-(4-(4-(1,4-diazabicyclo[3.2.2]nonane-4-carbonyl)piperidin-1-yl)-5-fluoropyridin-3-yl)-2-amino-6-fluoropyrazolo[1,5-a]pyrimidine-3-carboxamide] | +++ (Compounds with a Cisplatin sensitization value of <0.02 μM are marked with “+++.”) |
| Nc1nn2cc(F)cnc2c1C(=O)Nc1cncc(F)c1N1CCC(C(=O)N2CCC2)CC1 [I-G-8, 2-amino-N-(4-(4-(azetidine-1-carbonyl)piperidin-1-yl)-5-fluoropyridin-3-yl)-6-fluoropyrazolo[1,5-a]pyrimidine-3-carboxamide] | +++ (Compounds with a Cisplatin sensitization value of <0.02 μM are marked with “+++.”) |
| CCN1CCN(C(=O)C2CCN(c3c(F)cncc3NC(=O)c3c(N)nn4cc(F)cnc34)CC2)CC1 [I-G-9, 2-amino-N-(4-(4-(4-ethylpiperazine-1-carbonyl)piperidin-1-yl)-5-fluoropyridin-3-yl)-6-fluoropyrazolo[1,5-a]pyrimidine-3-carboxamide] | +++ (Compounds with a Cisplatin sensitization value of <0.02 μM are marked with “+++.”) |
| Nc1nn2cc(F)cnc2c1C(=O)Nc1cncc(F)c1N1CCC(C(=O)N2CCN3CCCC3C2)CC1 (stereo not shown) [I-G-10, 2-amino-6-fluoro-N-(5-fluoro-4-(4-(octahydropyrrolo[1,2-a]pyrazine-2-carbonyl)piperidin-1-yl)pyridin-3-yl)pyrazolo[1,5-a]pyrimidine-3-carboxamide] | +++ (Compounds with a Cisplatin sensitization value of <0.02 μM are marked with “+++.”) |
| CN(C)[C@@H]1CCN(C(=O)C2CCN(c3c(F)cncc3NC(=O)c3c(N)nn4cc(F)cnc34)CC2)C1 [I-G-11, (R)-2-amino-N-(4-(4-(3-(dimethylamino)pyrrolidine-1-carbonyl)piperidin-1-yl)-5-fluoropyridin-3-yl)-6-fluoropyrazolo[1,5-a]pyrimidine-3-carboxamide] | +++ (Compounds with a Cisplatin sensitization value of <0.02 μM are marked with “+++.”) |
| Nc1nn2cc(F)cnc2c1C(=O)Nc1cncc(F)c1N1CCC(C(=O)N2CCNCC2)CC1 [I-G-12, 2-amino-6-fluoro-N-(5-fluoro-4-(4-(piperazine-1-carbonyl)piperidin-1-yl)pyridin-3-yl)pyrazolo[1,5-a]pyrimidine-3-carboxamide] | +++ (Compounds with a Cisplatin sensitization value of <0.02 μM are marked with “+++.”) |
| Nc1nn2cc(F)cnc2c1C(=O)Nc1cncc(F)c1N1CCC(C(=O)N2CCN(C3CC3)CC2)CC1 [I-G-13, 2-amino-N-(4-(4-(4-cyclopropylpiperazine-1-carbonyl)piperidin-1-yl)-5-fluoropyridin-3-yl)-6-fluoropyrazolo[1,5-a]pyrimidine-3-carboxamide] | +++ (Compounds with a Cisplatin sensitization value of <0.02 μM are marked with “+++.”) |
| CN1CCN(C(=O)C2CCN(c3c(F)cncc3NC(=O)c3c(N)nn4cc(F)cnc34)CC2)CC1(C)C [I-G-15, 2-amino-6-fluoro-N-(5-fluoro-4-(4-(3,3,4-trimethylpiperazine-1-carbonyl)piperidin-1-yl)pyridin-3-yl)pyrazolo[1,5-a]pyrimidine-3-carboxamide] | +++ (Compounds with a Cisplatin sensitization value of <0.02 μM are marked with “+++.”) |
| CN(C)CCCN(C)C(=O)C1CCN(c2c(F)cncc2NC(=O)c2c(N)nn3cc(F)cnc23)CC1 [I-G-16, 2-amino-N-(4-(4-((3-(dimethylamino)propyl)(methyl)carbamoyl)piperidin-1-yl)-5-fluoropyridin-3-yl)-6-fluoropyrazolo[1,5-a]pyrimidine-3-carboxamide] | +++ (Compounds with a Cisplatin sensitization value of <0.02 μM are marked with “+++.”) |
| CNCCCN(C)C(=O)C1CCN(c2c(F)cncc2NC(=O)c2c(N)nn3cc(F)cnc23)CC1 [I-G-17] | + (Compounds with a Cisplatin sensitization value >0.2 μM but <5 μM are marked with “+.”) |
| CN1CC2CN(C(=O)C3CCN(c4c(F)cncc4NC(=O)c4c(N)nn5cc(F)cnc45)CC3)CC2C1 (stereo not shown) [I-G-18, 2-amino-6-fluoro-N-(5-fluoro-4-(4-(5-methyloctahydropyrrolo[3,4-c]pyrrole-2-carbonyl)piperidin-1-yl)pyridin-3-yl)pyrazolo[1,5-a]pyrimidine-3-carboxamide] | +++ (Compounds with a Cisplatin sensitization value of <0.02 μM are marked with “+++.”) |
| CC(C)(C)NC(=O)C1CCN(c2c(F)cncc2NC(=O)c2c(N)nn3cc(F)cnc23)CC1 [I-G-19, 2-amino-N-(4-(4-(tert-butylcarbamoyl)piperidin-1-yl)-5-fluoropyridin-3-yl)-6-fluoropyrazolo[1,5-a]pyrimidine-3-carboxamide] | ++ (Compounds with a Cisplatin sensitization value >0.02 μM but <0.2 μM are marked with “++.”) |
| CN1CCC(NC(=O)C2CCN(c3c(F)cncc3NC(=O)c3c(N)nn4cc(F)cnc34)CC2)CC1 [I-G-20, 2-amino-6-fluoro-N-(5-fluoro-4-(4-((1-methylpiperidin-4-yl)carbamoyl)piperidin-1-yl)pyridin-3-yl)pyrazolo[1,5-a]pyrimidine-3-carboxamide] | + (Compounds with a Cisplatin sensitization value >0.2 μM but <5 μM are marked with “+.”) |
